The values below come from patent US9200008B2 (ASKA PHARMACEUTICAL CO., LTD., priority 2010, dated 2015).

The test system of the test is Human prostate cancer cell lines (PC-3 cells). As to the kind of experiment: Measurement of cell death-inducing activity (Test Example 1). It counts as cell-based. The settings on record: PC-3, 48 h, 48 hours after addition, tested at 10, 1, 0.1, 0.025 and 0.00625 μmol/L, qualitative evaluation of 10 fields, read-out: Concentration showing the cell death-inducing activity (cell death-inducing rate not less than 40%). In a few lines: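 PC-3 cells seeded at 1×10^5 cells/well and grown 48 h at 37 °C, 5% CO2, then exposed to compound at 10, 1, 0.1, 0.025 and 0.00625 μmol/L (DMSO control) for a further 48 h. Activity was called where cell death-inducing rate was not less than 40%.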
`Cc1nc(-c2ccc(Cl)cc2)sc1C(=O)N/N=C/c1ccc(O)c2ccccc12` [Example 23-110]: the minimal effective concentration was 1 µM. Consider `COc1ccc(-c2nc(C)c(C(=O)N/N=C/c3ccc(O)c4ccccc34)s2)cc1` [Example 23-113], for which the minimal effective concentration was found to be 10 µM. The value for `Cc1nc(-c2ccc(Cl)cc2)sc1C(=O)N/N=C/c1ccc(OC(F)F)c(O)c1` [Example 23-115] was 1 µM; that for `Cc1nc(-c2ccccc2Cl)sc1C(=O)N/N=C/c1ccc(OC(F)F)c(O)c1` [Example 23-116] was 1 µM; that for `Cc1cccc(-c2nc(C)c(C(=O)N/N=C/c3ccc(OC(F)F)c(O)c3)s2)c1C` [Example 23-117] was 1 µM. As for `Cc1nc(-c2ccccc2C(F)(F)F)sc1C(=O)N/N=C/c1ccc(OC(F)F)c(O)c1` [Example 23-118], the figure is 1 µM. The value for `Cc1cccnc1-c1nc(C)c(C(=O)N/N=C/c2cc(C)c(O)c(C)c2)s1` [Example 23-119] was 10 µM. As for `COc1ccccc1-c1nc(C)c(C(=O)N/N=C/c2cc(C)c(O)c(C)c2)s1` [Example 23-120], the minimal effective concentration is 0.1 µM.

As to `Cc1ccc(-c2nc(C)c(C(=O)N/N=C/c3cc(C)c(O)c(C)c3)s2)c(C)c1` [Example 23-122], the minimal effective concentration came out at 0.1 µM. With `Cc1cc(Cl)ccc1-c1nc(C)c(C(=O)N/N=C/c2cc(C)c(O)c(C)c2)s1` [Example 23-123], the minimal effective concentration is 0.1 µM.

As to `Cc1ccccc1-c1ncc(C(=O)N/N=C/c2cc(C)c(O)c(C)c2)s1` [Example 23-124], the minimal effective concentration came out at 0.1 µM. As for `COc1ccc(/C=N/NC(=O)c2sc(-c3cccc(Cl)c3C)nc2C)cc1O` [Example 23-125], the figure is 1 µM; as for `COc1ccc(/C=N/NC(=O)c2sc(-c3cc(C)ccc3C)nc2C)cc1O` [Example 23-126], 1 µM; as for `Cc1ccc(C)c(-c2nc(C)c(C(=O)N/N=C/c3cc(C)c(O)c(C)c3)s2)c1` [Example 23-127], 1 µM. With `COc1ccc(/C=N/NC(=O)c2sc(C3CCCCC3)nc2C)cc1O` [Example 23-128], the minimal effective concentration was 1 µM. As for `Cc1cc(/C=N/NC(=O)c2sc(C3CCCCC3)nc2C)cc(C)c1O` [Example 23-129], the figure is 10 µM; as for `COc1ccc(/C=N/NC(=O)c2sc(-c3cccc(OC)c3C)nc2C)cc1O` [Example 23-130], 1 µM. As for `COc1cccc(-c2nc(C)c(C(=O)N/N=C/c3cc(C)c(O)c(C)c3)s2)c1C` [Example 23-131], the figure is 1 µM; as for `COc1ccc(/C=N/NC(=O)c2sc(C)nc2C)cc1O` [Example 23-132], 10 µM.

`Cc1nc(C)c(C(=O)N/N=C/c2cc(C)c(O)c(C)c2)s1` [Example 23-133]: the minimal effective concentration was 10 µM. Consider `COc1ccc(/C=N/NC(=O)c2sc(-c3sc(C)nc3C)nc2C)cc1O` [Example 23-134], for which the minimal effective concentration came out at 1 µM. As for `COc1ccc(/C=N/NC(=O)c2sc(-c3cnccc3C)nc2C)cc1O` [Example 23-135], the figure is 1 µM. On to `Cc1ccncc1-c1nc(C)c(C(=O)N/N=C/c2cc(C)c(O)c(C)c2)s1` [Example 23-136], for which the minimal effective concentration stood at 1 µM. The value for `COc1ccc(/C=N/NC(=O)c2sc(-c3scnc3C)nc2C)cc1O` [Example 23-137] was 1 µM; that for `COc1ccc(/C=N/NC(=O)c2sc(-c3ncccc3Cl)nc2C)cc1O` [Example 23-139] was 1 µM. As for `COc1ccc(/C=N/NC(=O)c2sc(-c3ccc(Cl)cc3)nc2C)cc1B(O)O` [Example 23-140], the figure is 1 µM; as for `Cc1cc(/C=N/NC(=O)c2cnc(-c3ccccc3Cl)s2)cc(C)c1O` [Example 23-143], 1 µM; as for `CCCOc1ccccc1-c1nc(C)c(C(=O)N/N=C/c2ccc(OC)cc2)s1` [Example 23-149], 0.1 µM. The value for `Cc1nc(-c2ccc(Cl)cc2)sc1C(=O)N/N=C/c1ccc2c(c1)CCO2` [Example 23-152] was 10 µM; that for `COc1ccccc1-c1nc(C)c(C(=O)N/N=C/c2ccc3c(c2)CCO3)s1` [Example 23-153] was 0.1 µM; that for `COc1ccc(/C=N/NC(=O)c2sc(-c3cccc4c3OCCO4)nc2C)cc1O` [Example 23-154] was 10 µM. As to `COc1ccccc1-c1nc(C)c(C(=O)N/N=C/c2ccc3occc3c2)s1` [Example 23-159], the minimal effective concentration is 0.1 µM. As for `COc1ccc(/C=N/NC(=O)c2sc(-c3ccccc3OC)nc2C)cc1B(O)O` [Example 23-160], the figure is 0.1 µM; as for `Cc1nc(-c2ccc(Cl)cc2)sc1C(=O)N/N=C/c1ccc2occc2c1` [Example 23-161], 1 µM; as for `COc1ccc(-c2nc(-c3ccccc3C)sc2C(=O)N/N=C/c2cc(C)c(O)c(C)c2)cc1` [Example 23-162], 1 µM. The value for `COc1ccc2c(c1)CC/C2=N\NC(=O)c1sc(-c2ccc(Cl)cc2OC)nc1C` [Example 23-165] was 1 µM.

In the case of `COc1ccc(/C=N/NC(=O)c2cc(-c3ccc(Cl)cc3)oc2C)cc1O` [Example 23-166, 5-(4-Chlorophenyl)-2-methylfuran-3-carboxylic acid [1-(3-hydroxy-4-methoxyphenyl)methylidene]hydrazide], the minimal effective concentration came to 1 µM. The value for `Cc1cc(/C=N/NC(=O)c2cc(-c3ccc(Cl)cc3)oc2C)cc(C)c1O` [Example 23-167, 5-(4-Chlorophenyl)-2-methylfuran-3-carboxylic acid [1-(4-hydroxy-3,5-dimethylphenyl)methylidene]hydrazide] was 1 µM. The value for `COc1ccc(/C=N/NC(=O)c2cc(-c3ccc(Cl)cc3OC)cn2C)cc1` [Example 23-168, 4-(4-Chloro-2-methoxyphenyl)-1-methyl-1H-pyrrole-2-carboxylic acid (4-methoxybenzylidene)hydrazide] was 1 µM; that for `COc1cc(Cl)ccc1-c1cc(C(=O)N/N=C/c2cc(C)c(O)c(C)c2)n(C)c1` [Example 23-169, 4-(4-Chloro-2-methoxyphenyl)-1-methyl-1H-pyrrole-2-carboxylic acid (4-hydroxy-3,5-dimethylbenzylidene)hydrazide] was 10 µM; that for `COc1ccc(/C=N/NC(=O)c2cc(-c3ccc(Cl)cc3OC)cn2C)cc1O` [Example 23-170, 4-(4-Chloro-2-methoxyphenyl)-1-methyl-1H-pyrrole-2-carboxylic acid (3-hydroxy-4-methoxybenzylidene)hydrazide] was 10 µM. As for `Cc1cccc(-c2c[nH]c(C(=O)N/N=C/c3cc(C)c(O)c(C)c3)c2)c1C` [Example 24-1, 4-(2,3-Dimethylphenyl)-1H-pyrrole-2-carboxylic acid [1-(4-hydroxy-3,5-dimethylphenyl)methylidene]hydrazide], the figure is 1 µM; as for `COc1ccc(/C=N/NC(=O)c2cc(-c3ccc(Cl)cc3)c[nH]2)cc1O` [Example 24-2, 4-(4-Chlorophenyl)-1H-pyrrole-2-carboxylic acid [1-(3-hydroxy-4-methoxyphenyl)methylidene]hydrazide], 1 µM; as for `Cc1cc(/C=N/NC(=O)c2cc(-c3ccc(Cl)cc3)c[nH]2)cc(C)c1O` [Example 24-3, 4-(4-Chlorophenyl)-1H-pyrrole-2-carboxylic acid[1-(4-hydroxy-3,5-dimethylphenyl)methylidene]hydrazide], 0.1 µM. Take `COc1ccc(/C=N/NC(=O)c2cnc(-c3ccc(Cl)cc3)[nH]2)cc1O` [Example 25-1, 2-(4-Chlorophenyl)-3H-imidazole-4-carboxylic acid[1-(3-hydroxy-4-methoxyphenyl)methylidene]hydrazide]: the minimal effective concentration worked out at 10 µM. As for `Cc1ccccc1-c1ncc(C(=O)N/N=C/c2cc(C)c(O)c(C)c2)[nH]1` [Example 25-2, 2-(2-Methylphenyl)-3H-imidazole-4-carboxylic acid[1-(4-hydroxy-3,5-dimethylphenyl)methylidene]hydrazide], the figure is 10 µM; as for `COc1ccc(/C=N/NC(=O)c2cnc(-c3ccccc3C)[nH]2)cc1O` [Example 25-3, 2-(2-Methylphenyl)-3H-imidazole-4-carboxylic acid[1-(3-hydroxy-4-methoxyphenyl)methylidene]hydrazide], 10 µM; as for `Cc1cc(/C=N/NC(=O)c2cnc(-c3ccccc3C)[nH]2)ccc1O` [Example 25-4, 2-(2-Methylphenyl)-3H-imidazole-4-carboxylic acid[1-(4-hydroxy-3-methylphenyl)methylidene]hydrazide], 10 µM.

Regarding `COc1ccc(/C=N/NC(=O)c2[nH]c(-c3ccc(Cl)cc3)nc2C)cc1O` [Example 25-5, 2-(4-Chlorophenyl)-5-methyl-3H-imidazole-4-carboxylic acid[1-(3-hydroxy-4-methoxyphenyl)methylidene]hydrazide], the minimal effective concentration turned out to be 10 µM. The value for `Cc1cc(/C=N/NC(=O)c2oc(-c3ccc(Cl)cc3)nc2C)cc(C)c1O` [Example 26-1, 2-(4-Chlorophenyl)-4-methyloxazole-5-carboxylic acid[N′-(4-hydroxy-3,5-dimethylphenyl)methylidene]hydrazide] was 10 µM; that for `COc1ccc(/C=N/NC(=O)c2oc(-c3ccccc3OC)nc2C)cc1O` [Example 26-2, 2-(2-Methoxyphenyl)-4-methyloxazole-5-carboxylic acid[N′-(3-hydroxy-4-methoxylphenyl)methylidene]hydrazide] was 10 µM.
